Legend:
protein kinase A (PKA) = protein kinase A (PKA) (Homo sapiens, UniProt P17612); experiment: SERS detection of small molecule binding to protein after size exclusion spin column; details: 2.5 μM H-89, 0.2 mg/mL protein, PKA reaction buffer, 30 minutes at room temperature; flow through, difference of SERS spectra at 70° C. and room temperature
Description: In FIG. 2 small molecules and proteins are mixed in a purification column such as a size exclusion spin column and are allowed to incubate for a period of time. The incubation times depends on the binding affinity between the small molecule and the protein. Typically an incubation time of 10-30 minutes at room temperature is sufficient. The solvent used in the purification column is preferably chosen to optimize binding between the small molecules and the proteins. For example, PKA reaction buffer (50 mM Tris-HCl, 10 mM MgCl2) is preferably used for optimal binding between PKA and H-89.
For example, molecules with molecular weights below a certain cut-off value are retained in the size-exclusion type purification columns while protein molecules are collected in the flow through. Any small molecules that bind to the protein can also be carried through the column with the protein and recovered in the flow through. Raman spectroscopy using SERS active particles can be used to detect the small molecules in the flow through.
In FIG. 2-2 the small molecules are first released from the proteins in the flow through by, for example, heating the flow through. Raman spectroscopy is then again used to detect the presence of the small molecules in the flow through.
H-89 is a known small molecule inhibitor to protein kinase A (PKA). […]

[1] = molecular target: bovine serum albumin (BSA) (Bos taurus, UniProt P02769); experiment: SERS detection of small molecule binding to protein after size exclusion spin column (negative control protein); details: 2.5 μM H-89, 0.2 mg/mL protein, same procedure
Description: (§1) PIERCE ZEBA-ZEBA desalt spin columns (cat #89882) were washed 10 times with methanol and 10 times with purified water. H-89 was then mixed with PKA or control proteins in a PKA reaction buffer (50 mM Tris-HCl, 10 mM MgCl2), making a final H-89 concentration of 2.5 μM and protein concentration of 0.2 mg/mL. This mixture was incubated at room temperature for 30 minutes, added to a desalting size exclusion spin column, and spun at 1500 g for 2 minutes to remove free H-89.
(§2) The silver colloids are aggregated by 0.5M of Lithium Chloride prior to addition of the sample. Ten spectra are collected from the mixture of sample and aggregated silver colloids. The remaining flow through is heated at 70° C. for 10 minutes, and another SERS measurement is performed. The line labeled PKA is the arithmetic difference in the SERS spectrums at 70° C. and room temperature (intensity on the primary y-axis). The main characteristic peaks of H-89 are visible and marked by black arrows.
(§3) The same procedure described above is repeated with other proteins including bovine serum albumin (labeled BSA), immunoglobulin G (labeled IgG), and Histone (labeled as Histone) as negative controls. The SERS spectrum corresponding to H-89 is not seen in any of these controls.

immunoglobulin G (IgG) = experiment: as above; details: 2.5 μM H-89, 0.2 mg/mL protein, same procedure
Description: as §1, §2, §3

Histone = experiment: as above; details: 2.5 μM H-89, 0.2 mg/mL protein, same procedure
Description: as §1, §2, §3

bovine serum albumin (BSA), sequence (P02769 25-607): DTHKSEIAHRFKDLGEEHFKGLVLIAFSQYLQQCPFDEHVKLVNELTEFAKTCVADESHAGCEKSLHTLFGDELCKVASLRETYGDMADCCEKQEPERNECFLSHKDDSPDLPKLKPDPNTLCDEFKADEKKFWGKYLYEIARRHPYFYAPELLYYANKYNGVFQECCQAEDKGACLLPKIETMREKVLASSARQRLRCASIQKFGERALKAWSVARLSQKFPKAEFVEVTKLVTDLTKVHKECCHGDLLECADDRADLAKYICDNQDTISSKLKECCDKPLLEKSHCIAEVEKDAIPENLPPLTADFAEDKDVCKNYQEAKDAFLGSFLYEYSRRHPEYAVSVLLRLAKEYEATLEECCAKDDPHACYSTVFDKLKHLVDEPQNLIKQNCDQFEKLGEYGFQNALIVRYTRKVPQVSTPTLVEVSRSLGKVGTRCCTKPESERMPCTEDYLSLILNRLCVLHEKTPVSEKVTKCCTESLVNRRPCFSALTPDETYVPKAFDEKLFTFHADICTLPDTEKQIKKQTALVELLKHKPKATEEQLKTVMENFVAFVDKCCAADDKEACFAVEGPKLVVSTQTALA

O=S(=O)(NCCNC/C=C/c1ccc(Br)cc1)c1cccc2cnccc12 [H-89]
binding to PKA (characteristic H-89 peaks in SERS difference spectrum) (protein kinase A (PKA)): there was binding of H-89 to PKA | specific binding to BSA (SERS spectrum corresponding to H-89) [1]: specific binding of H-89 to the control proteins did not occur | specific binding to IgG (SERS spectrum corresponding to H-89) (immunoglobulin G (IgG)): specific binding of H-89 to the control proteins did not occur | specific binding to Histone (SERS spectrum corresponding to H-89) (Histone): specific binding of H-89 to the control proteins did not occur

Reference: patent US20070141714A1, “Method to detect small molecules binding to proteins using surface enhanced Raman scattering (SERS)” (Intel Corporation, priority 2005, published 2007)
